Experimental data taken from PubChem BioAssay (NCI).
Values joined by “and” are separate entries in the source; they are usually repeats but may differ in a detail not shown here. Equal values may be shown once.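 In this assay, cells in 96-well plates receive the compound at five concentrations for 48 hours. Endpoints are linearly interpolated between the surrounding concentrations. Abbreviation: GI50, concentration required for 50% inhibition of growth. TGI: concentration producing complete growth inhibition.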

Columns and labels:
Experiment in all cases: growth of human tumour cells (NCI), 48 h
BT-549 breast = test system: BT-549 breast
MDA-N = test system: MDA-N
T-47D breast = test system: T-47D breast
DLD-1 colon = test system: DLD-1 colon
LXFL 529 NSCLC = test system: LXFL 529 NSCLC
M19-MEL melanoma = test system: M19-MEL melanoma
RXF-631 renal = test system: RXF-631 renal
DMS 114 small cell lung = test system: DMS 114 small cell lung

C=C(Cl)C(Br)(CCl)CCC(Br)C(C)(C)Cl (configuration not stated)
GI50 (BT-549 breast): 1.99 µM
TGI (BT-549 breast): 3.83 µM and 4.53 µM
GI50 (MDA-N): 2.05 µM
TGI (MDA-N): 7.34 µM and 4.3 µM
GI50 (T-47D breast): 30.1 µM

CC(=O)OC12C=CC(=O)N1c1ccccc1C(=O)O2 (configuration not stated)
GI50 (BT-549 breast): > 100 µM
TGI (BT-549 breast): > 100 µM
TGI (DLD-1 colon): > 100 µM
TGI (LXFL 529 NSCLC): > 100 µM
TGI (M19-MEL melanoma): > 100 µM
GI50 (T-47D breast): > 100 µM
TGI (T-47D breast): > 100 µM

O=C1/C(=C/c2cccc(Cl)c2Cl)N=C(c2ccccc2)N1C1CC1
GI50 (BT-549 breast): 9.84 µM
TGI (BT-549 breast): 24.1 µM

COc1cc(-c2cc(-c3cc4c([nH]c5ccccc54)c(-c4cc(OC)c(OC)c(OC)c4)n3)cc(-c3ccccc3)n2)cc(OC)c1OC
GI50 (BT-549 breast): 6.74 µM
TGI (BT-549 breast): 91.2 µM
GI50 (T-47D breast): 2.8 µM
TGI (T-47D breast): 35.4 µM

C[C@@H]1CC[C@@H]2[C@@H]1[C@H](OC(=O)/C=C/c1ccccc1)[C@]1(C3CCCCC3)C[C@@H](OC(=O)CO)[C@@]2(C)O1
GI50 (BT-549 breast): 0.0337 µM
TGI (BT-549 breast): 0.729 µM
GI50 (T-47D breast): 2.64 µM
TGI (T-47D breast): 10.7 µM

CCOc1ccc(NC(=O)CC#N)cc1
TGI (DLD-1 colon): > 100 µM
TGI (LXFL 529 NSCLC): > 100 µM
TGI (M19-MEL melanoma): > 100 µM
TGI (RXF-631 renal): > 100 µM

COc1cccc(C2=NC(C(C)C)CO2)c1 (configuration not stated)
TGI (DLD-1 colon): > 100 µM
TGI (DMS 114 small cell lung): > 100 µM
TGI (LXFL 529 NSCLC): > 100 µM
TGI (M19-MEL melanoma): > 100 µM

CN(C)CC1CCCC/C1=N/OC(=O)c1ccc(Cl)cc1 (configuration not stated)
TGI (DLD-1 colon): > 100 µM
TGI (LXFL 529 NSCLC): > 100 µM
TGI (M19-MEL melanoma): > 100 µM

Cc1ccc(NC(=O)CCc2cc(C(C)(C)C)nc(=S)[nH]2)cc1C
TGI (DMS 114 small cell lung): > 100 µM
TGI (LXFL 529 NSCLC): > 100 µM

O=C1C=CC(=O)c2cc3cc(CBr)ccc3cc21
GI50 (BT-549 breast): 2.75 µM
TGI (BT-549 breast): 8.96 µM
GI50 (T-47D breast): 2.12 µM
TGI (T-47D breast): > 26.2 µM

Cc1cc(N(CCC#N)CCC#N)ccc1N=Nc1ccc(C(=O)O)cc1
TGI (DMS 114 small cell lung): > 100 µM
TGI (LXFL 529 NSCLC): > 100 µM
TGI (M19-MEL melanoma): > 100 µM

C1CN2CCN3CCN4CCN1[P+]243
TGI (DLD-1 colon): > 100 µM
TGI (DMS 114 small cell lung): > 100 µM
TGI (LXFL 529 NSCLC): > 100 µM
TGI (M19-MEL melanoma): > 100 µM

Nc1c(C(=O)Nc2ccncc2)sc2nc3c(cc12)CCCCCCCC3
GI50 (BT-549 breast): 0.838 µM
TGI (BT-549 breast): 1.6 µM
GI50 (T-47D breast): 0.94 µM
TGI (T-47D breast): 2.21 µM

COc1ccc(-c2nc3ccc(-c4nc5ccc(N6CCN(c7ccccc7)CC6)cc5[nH]4)cc3[nH]2)cc1OC
GI50 (BT-549 breast): 3.31 µM
TGI (BT-549 breast): 10.9 µM
GI50 (T-47D breast): 1.68 µM
TGI (T-47D breast): 5.19 µM

CN(C)CC[PH+](c1ccccc1)c1ccccc1.CN(C)CC[PH+](c1ccccc1)c1ccccc1.[Cl-].[Pd+2]
GI50 (BT-549 breast): > 100 µM
TGI (BT-549 breast): > 100 µM
GI50 (MDA-N): > 100 µM
TGI (MDA-N): > 100 µM
GI50 (T-47D breast): > 100 µM
TGI (T-47D breast): > 100 µM

CCOC(=O)Nc1ccc(C)c(NC(=O)OCC)c1
TGI (MDA-N): > 100 µM
TGI (T-47D breast): > 100 µM

COc1cccc2c1C(=O)c1c(O)c3c(c(O)c1C2=O)C[C@](O)(C(=O)CO)C[C@H]3O[C@@H]1C[C@@H](NC(=O)CCCCCN(C)C2(c3ccc(F)cc3)CC3CCC2C3)[C@H](O)[C@@H](C)O1 (some centres not stated)
GI50 (BT-549 breast): 5.3 µM
TGI (BT-549 breast): 14.2 µM

CC(C)Oc1ccc2cc(-c3nn(CC4CCNCC4)c4ncnc(N)c34)ccc2c1
GI50 (BT-549 breast): 9.6 µM
TGI (BT-549 breast): 22 µM
GI50 (T-47D breast): 9.81 µM
TGI (T-47D breast): 24.9 µM

CC(=O)Oc1c2c(c(O)c3ccccc13)C(n1cnc3c(ncn3C3OC(CO)C4OC(C)(C)OC43)c1=N)CCC2 (configuration not stated)
TGI (DLD-1 colon): 27.4 µM
TGI (DMS 114 small cell lung): 21.7 µM
TGI (M19-MEL melanoma): 23.8 µM

COc1ccc(-c2nn(-c3ccc(NC(=O)c4ccc(Cl)c(Cl)c4)cc3)cc2-c2ccncc2)cc1Cl
GI50 (BT-549 breast): 3.23 µM
TGI (BT-549 breast): > 50 µM
GI50 (T-47D breast): > 50 µM
TGI (T-47D breast): > 50 µM

COc1ccc(Nc2nnc(-c3cc(O)ccc3O)s2)cc1
GI50 (BT-549 breast): 14.9 µM
TGI (BT-549 breast): 43.6 µM

Cn1cc(C2=C(c3cn(CCCCO)c4ccccc34)C(=O)NC2=O)c2ccccc21
GI50 (BT-549 breast): 8.27 µM
TGI (BT-549 breast): > 19.6 µM
GI50 (T-47D breast): 9.64 µM
TGI (T-47D breast): 24.8 µM

COc1ccc(C(=O)/C=C/c2cc(-c3cc(OC)c(OC)c(OC)c3)n[nH]2)cc1OC
GI50 (BT-549 breast): 1.44 µM
TGI (BT-549 breast): 2.9 µM
GI50 (T-47D breast): 1.63 µM
TGI (T-47D breast): 4.36 µM

CCCN1C(=O)N(CCC)C2C1NC(=S)N2/N=C/C=C/c1ccccc1OC (configuration not stated)
GI50 (BT-549 breast): 2.77 µM
TGI (BT-549 breast): 32.9 µM
GI50 (T-47D breast): 0.376 µM
TGI (T-47D breast): 37 µM

CCC[CH2][Sn]([Cl])([CH2]CCC)[CH2]CCC
GI50 (DLD-1 colon): 0.0853 µM
TGI (DLD-1 colon): 1.02 µM
GI50 (DMS 114 small cell lung): 0.068 µM
TGI (DMS 114 small cell lung): 0.225 µM
GI50 (LXFL 529 NSCLC): 0.0645 µM
TGI (LXFL 529 NSCLC): 0.202 µM
GI50 (M19-MEL melanoma): 0.11 µM
TGI (M19-MEL melanoma): 0.236 µM

CN1C(=O)N(C)C2C1NN=c1s/c(=C\c3ccc(Cl)cc3Cl)c(=O)n12 (configuration not stated)
GI50 (BT-549 breast): 0.264 µM
TGI (BT-549 breast): 12.8 µM
GI50 (T-47D breast): 0.0576 µM
TGI (T-47D breast): > 100 µM

S=c1sc2c(Cl)nc(Cl)nc2n1-c1ccccc1
TGI (DLD-1 colon): 29.9 µM
TGI (DMS 114 small cell lung): 27.3 µM
TGI (LXFL 529 NSCLC): 31.7 µM
TGI (M19-MEL melanoma): 29.9 µM

O=C1OCC2=C1C(c1cccc(Br)c1)c1cc3c(cc1N2CCO)CCC3 (configuration not stated)
GI50 (BT-549 breast): 0.209 µM
TGI (BT-549 breast): 6.5 µM
GI50 (T-47D breast): 2.37 µM
TGI (T-47D breast): 17.9 µM

COc1ccc2[nH]cc(C3(c4c[nH]c5ccc(OC)cc45)C(=O)Nc4ccc(F)cc43)c2c1
GI50 (BT-549 breast): 3.21 µM
TGI (BT-549 breast): 11.7 µM
GI50 (T-47D breast): 3.04 µM
TGI (T-47D breast): 14.9 µM

CCn1c2ccccc2c2cc(NC(=O)Nc3ccc([N+](=O)[O-])cc3C)ccc21
GI50 (BT-549 breast): 2.02 µM
TGI (BT-549 breast): 6.46 µM
GI50 (T-47D breast): 2.34 µM
TGI (T-47D breast): 9.54 µM

CCCNC(=S)NNC(=O)CSc1nc(-c2ccccc2)c(-c2ccccc2)[nH]1
TGI (DLD-1 colon): > 100 µM
TGI (DMS 114 small cell lung): > 100 µM
TGI (LXFL 529 NSCLC): > 100 µM
TGI (M19-MEL melanoma): > 100 µM

CN(C)C(n1cc2c(c1)-c1ccc(Cl)cc1C(c1ccccc1F)=NC2)n1cc2c(c1)-c1ccc(Cl)cc1C(c1ccccc1F)=NC2
TGI (MDA-N): 52.7 µM
TGI (T-47D breast): > 100 µM

CC[C@H]1[C@@H]2C=C[C@@H]3[C@H]4C/C=C\C(=O)NCCC[C@@H]5NC(=O)/C(=C(O)/C=C/[C@@H]4C[C@@H]3[C@H]2C[C@H]1C)C5=O
GI50 (BT-549 breast): 1.29 µM
TGI (BT-549 breast): 2.74 µM
GI50 (T-47D breast): 1.7 µM
TGI (T-47D breast): 4.1 µM

Cc1ccccc1N1C(=O)C2C=CC(n3[nH]c(=O)n(Cc4ccccc4)c3=O)CC2C1=O (configuration not stated)
TGI (DLD-1 colon): > 100 µM
TGI (DMS 114 small cell lung): > 100 µM
TGI (LXFL 529 NSCLC): > 100 µM
TGI (M19-MEL melanoma): > 100 µM

O=C1Nc2ccccc2/C1=N\[O-].O=C1Nc2ccccc2/C1=N\[O-].[Cu+2]
GI50 (BT-549 breast): > 100 µM
TGI (BT-549 breast): > 100 µM
GI50 (MDA-N): > 100 µM
TGI (MDA-N): > 100 µM
GI50 (T-47D breast): > 100 µM
TGI (T-47D breast): > 100 µM
